Results from ChEMBL document CHEMBL4251697 (ACS Med Chem Lett, 2018).
Values after ≈ are worked out from the molar mass of the structure shown.

Experiments:
[1] = target: Fibroblast growth factor receptor 4 (Homo sapiens, UniProt P22455)
[2] = Aqueous equilibrium solubility of compound in pH 6.8 phosphate buffer solution incubated overnight by shake flask based high throughput assay; type: physicochemical
[3] = Thermodynamic solubility of compound in pH 6.8 phosphate buffer solution incubated overnight on shaker by shake flask based HPLC analysis; type: physicochemical; details: read-out: Therm_solubility

Sequence of Fibroblast growth factor receptor 4 (P22455 whole entry): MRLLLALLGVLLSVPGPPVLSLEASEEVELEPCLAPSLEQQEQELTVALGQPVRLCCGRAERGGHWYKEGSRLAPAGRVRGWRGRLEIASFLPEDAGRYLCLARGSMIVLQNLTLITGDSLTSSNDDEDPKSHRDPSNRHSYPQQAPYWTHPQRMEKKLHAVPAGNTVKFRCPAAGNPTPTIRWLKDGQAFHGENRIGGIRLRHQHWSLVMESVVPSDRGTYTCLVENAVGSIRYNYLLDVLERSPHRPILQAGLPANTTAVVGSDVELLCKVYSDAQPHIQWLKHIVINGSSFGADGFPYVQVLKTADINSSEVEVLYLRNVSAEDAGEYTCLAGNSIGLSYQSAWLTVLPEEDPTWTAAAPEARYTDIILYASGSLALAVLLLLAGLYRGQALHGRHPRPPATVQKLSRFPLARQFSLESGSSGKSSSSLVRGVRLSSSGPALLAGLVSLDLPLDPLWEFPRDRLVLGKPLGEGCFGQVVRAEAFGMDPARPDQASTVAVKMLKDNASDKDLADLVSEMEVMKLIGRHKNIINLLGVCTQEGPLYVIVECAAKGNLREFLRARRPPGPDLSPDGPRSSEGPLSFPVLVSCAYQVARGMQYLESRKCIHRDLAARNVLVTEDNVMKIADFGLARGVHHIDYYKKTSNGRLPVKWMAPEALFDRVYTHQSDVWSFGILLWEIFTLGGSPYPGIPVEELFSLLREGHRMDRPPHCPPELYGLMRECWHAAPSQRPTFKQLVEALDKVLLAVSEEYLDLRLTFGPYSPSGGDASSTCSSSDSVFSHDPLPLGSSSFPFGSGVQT

SMILES	IC50 [1] [µM]	solubility thermodynamic [2] [µM]	solubility thermodynamic [3] [µM]
N#Cc1ccc(NC(=O)N2CCCc3ccc(CO)nc32)nc1	> 10		
COCCNc1cc(NC(=O)N(CCOC)c2cccc(C=O)n2)ncc1C#N		> 1000	
CN(C(=O)N1CCCc2ccc(C=O)nc21)c1ccc(C(F)(F)F)cn1	> 10		
O=Cc1ccc2cccc(C(=O)Nc3ccc(C(F)(F)F)cn3)c2n1		< 4	< 2.9
CN(C)CCOc1cc(NC(=O)N2CCCc3cccnc32)ncc1C#N		173 (≈ 63.4 µg/mL)	
O=Cc1ccc2c(n1)N(C(=O)Nc1ccc(C(F)(F)F)cn1)CCC2		< 4	4.9 (≈ 1.72 µg/mL)
CN(C)CCOc1cc(NC(=O)N2CCCc3ccc(C=O)nc32)ncc1C#N		300 (≈ 118 µg/mL)	
